A short description of data set [1]: ABTS free radical scavenging assay. The source says: Antioxidant activity. As mentioned before, oxidative stress is one of the components of AD pathomechanism and is characterised by an imbalance in the production of ROS. One of the mechanisms by which antioxidants reduce the concentration of ROS and therefore prevent or slow the cell damage caused by free radicals is scavenging them. Thus, we tested the scavenging ability of compounds 12–19 in the spectrophotometric ABTS assay that we used before. In this assay, the ability of compounds to scavenge ABTS^• radicals, which are generated from 2,2’-azino-bis(3-ethylbenzothiazoline-6-sulphonic acid) (ABTS), is measured. We tested the compounds at three concentrations: 30, 75 and 150 μM after 5, 30 and 60 min of incubation using Trolox, a water-soluble vitamin E analogue, as a reference (Table S1 in Supporting information).
The spectrophotometric ABTS assay was performed in 96-well microplates with the reagents purchased from Sigma-Aldrich (Steinheim, Germany) according to the previously described procedure. Stock solutions of the tested compounds (6.4 mM) and reagents were prepared in DMSO and water, respectively. 2,2′-Azino-bis(3-ethylbenzothiazoline-6-sulfonic acid) free radical (ABTS^•) was prepared by mixing the stock solution of ABTS (7 mM) and […] (2.45 mM) in ratio 1:1. The mixture was kept in the dark at 4 °C for 16 h. The obtained solution of (ABTS^•) was diluted with water 20 times. Then, the test compound or water or mixture of DMSO/water in the appropriate ratio (0.02 mL) was added to ABTS^• solution (0.18 mL). The three concentrations of the test compounds and Trolox were tested in triplicate: 0.15, 0.075 and 0.03 mM. Changes in absorbance were measured at 734 nm after 5, 30 and 60 min, using a microplate reader (SPECTROstar Nano; BMG Labtech, Ortenberg, Germany). Based on the equation ((A0 − A)/A0) × 100% (where A0 and A were the absorbances without and with the test compound, respectively) the percentage of free radical scavenging activity was calculated. The results are presented as mean ± SD.

The target in another data set is T1, CYP2D6 (Homo sapiens, UniProt P10635).
T1 construct: purchased Promega, Madison, WI, USA
Kind of data set: CYP P450-Glo luminescence assay, CYP2D6. The class given is in vitro ADME. The text has this: Influence on CYP3A4 and CYP2D6 activity. Possible drug–drug interactions (DDIs) are an important issue for elderly patients, who are usually on multiple medications. They may result, among other things, from the interactions (inhibition or activation) of the cytochrome P450 isoenzymes, especially CYP3A4 and CYP2D6, which play the most significant role in drugs’ biotransformation. Therefore, to predict the potential influence of the studied compounds (14, 16 and 19) on the metabolism of other drugs, we used the CYP450 inhibition luminescence assay (Promega). […]. […] […]. […] […].
The influence on CYP 3A4 and 2D6 activity was estimated by respective luminescent CYP P450-Glo™ assay (Promega®, Madison, WI, USA). The compounds were tested in the concentration range of 0.1–25 µM. The results were compared to the respective reference CYP inhibitors: ketoconazole and quinidine.

Data set [2] addresses T2, human recombinant AChE (hAChE) (Homo sapiens, UniProt P22303).
T2 construct: purchased Sigma-Aldrich (Steinheim, Germany)
Put plainly: biochemical. Particulars: mean ± SEM of at least three experiments. The procedure:
(§1) 5-HT6R binding affinity and cholinesterase (AChE/BuChE) inhibitory activity. […] Their affinities for recombinant human 5-HT6 receptors (h5-HT6R) were tested in a radioligand binding assay and the inhibitory potencies against human recombinant AChE (hAChE) and BuChE isolated from human plasma (hBuChE) in the spectrophotometric Ellman’s assay.
(§2) The assay was based on spectrophotometric Ellman’s method and was performed in 96-well microplates with the reagents purchased from Sigma-Aldrich (Steinheim, Germany) according to the previously described procedure. hBuChE was kindly donated by Vivonics (Bedford, MA, USA). […] After 5 minutes of the enzymatic reaction, the changes in absorbance were measured at 412 nm, using a microplate reader (SPECTROstar Nano; BMG Labtech, Ortenberg, Germany). First, compounds were tested at the screening concentration of 10 µM. Based on the equation 100 − (S/B) × 100 (where S and B were the respective enzyme activities with and without the test sample, respectively) the percentage inhibition of each enzyme for each compound was calculated. […] The IC50 values were calculated using nonlinear regression (GraphPad Prism 5; GraphPad Software, San Diego, CA, USA) by plotting the residual enzyme activities against the applied inhibitor concentration. […] All experiments were performed in triplicate.

The nature of data set [3]: Metabolic stability in mouse liver microsomes. The data set is classed as in vitro ADME. Particulars: 2 h, pH 7.4. (Microsomes from liver hold many membrane-bound enzymes, among them those of drug oxidation.)
Data set [4] can be described thus: Metabolic stability in human liver microsomes. The class given is in vitro ADME. The procedure:
Metabolic stability. […] For detailed results, including UPLC chromatograms and MS spectra, see the Supporting information (Figures S1–S16).
The metabolic stability was evaluated by incubation of compounds with human liver microsomes (Sigma-Aldrich, St. Louis, MO, USA) in 10 mM Tris–HCl buffer (pH 7.4) at 37 °C for 120 min in the presence of NADPH Regeneration System (Promega, Madison, WI, USA). The percentage of the remaining substrate and the most probable metabolic pathways were estimated by UPLC-MS analyses of the reaction mixtures.

Another data set concerns the target T3, human 5-HT6 receptor (Homo sapiens, UniProt P50406).
T3 construct: purchased PerkinElmer; host or cells: CHO-K1 cells, stably transfected (membrane preparation)
Put plainly: 5-HT6 receptor radioligand binding assay ([3H]-LSD, CHO-K1 membranes). The procedure:
5-HT6R binding affinity and cholinesterase (AChE/BuChE) inhibitory activity. We evaluated the pharmacological properties of the final compounds 12–19 in vitro according to the previously described, well-established protocols. Their affinities for recombinant human 5-HT6 receptors (h5-HT6R) were tested in a radioligand binding assay and the inhibitory potencies against human recombinant AChE (hAChE) and BuChE isolated from human plasma (hBuChE) in the spectrophotometric Ellman’s assay. […].
We prepared 10 mM of stock solutions of tested compounds in DMSO. Serial dilutions of compounds were prepared in a 96-well microplate in assay buffers using the automated pipetting system epMotion 5070 (Eppendorf). Each compound was tested in 8 concentrations from 10^−5 to 10^−12 M (final concentration).
The radioligand binding assay was performed using membranes from CHO-K1 cells stably transfected with the human 5-HT6 receptor (PerkinElmer) according to the previously described procedure. All assays were carried out in duplicates. We prepared 50 µL working solution of the tested compounds, 50 µL [^3H]-LSD (final concentration 2.5 nM) and 150 µL diluted membranes (15 µg protein per well) in assay buffer (50 mM Tris, pH 7.4, 10 mM MgCl2, 0.1 mM EDTA) and transferred them to polypropylene 96-well microplates using a 96-well pipetting station Rainin Liquidator (MettlerToledo). Methiothepin (10 μM) was used to define nonspecific binding. The microplate was covered with sealing tape, mixed and incubated for 60 min at 27 °C. The reaction was terminated by rapid filtration through GF/B filter mate presoaked with 0.5% polyethyleneimine for 30 min. Ten rapid washes with 200 µL 50 mM Tris buffer (4 °C, pH 7.4) were performed using the automated harvester system Harvester-96 MACH III FM (Tomtec). The filter mates were dried at 37 °C in a forced air fan incubator and then solid scintillator MeltiLex was melted on filter mates at 90 °C for 5 min. Radioactivity was counted in MicroBeta2 scintillation counter (PerkinElmer). Data were fitted to a one-site curve-fitting equation with Prism 6 (GraphPad Software) and Ki values were estimated from the Cheng−Prusoff equation.

Data set [5] concerns the target T4, BuChE isolated from human plasma (hBuChE) (Homo sapiens, UniProt P06276).
T4 construct: BuChE isolated from human plasma (hBuChE); tissue Vivonics (Bedford, MA, USA), donated; host or cells: human plasma
Kind of data set: biochemical. The data set is classed as biochemical. Particulars: mean ± SEM of at least three experiments. Here is the method: as §1, §2

The test system of data set [6] is patients with moderate Alzheimer’s dementia. The settings on record: phase II, adjunct to cholinesterase inhibitors, moderate Alzheimer’s dementia ref 14, 15; cited from earlier work.

One may read the IC50 as the midpoint of a concentration-inhibition curve. By Ki is commonly meant a measure of affinity in units of concentration, obtained from inhibition or displacement.

T1 sequence (P10635 whole entry): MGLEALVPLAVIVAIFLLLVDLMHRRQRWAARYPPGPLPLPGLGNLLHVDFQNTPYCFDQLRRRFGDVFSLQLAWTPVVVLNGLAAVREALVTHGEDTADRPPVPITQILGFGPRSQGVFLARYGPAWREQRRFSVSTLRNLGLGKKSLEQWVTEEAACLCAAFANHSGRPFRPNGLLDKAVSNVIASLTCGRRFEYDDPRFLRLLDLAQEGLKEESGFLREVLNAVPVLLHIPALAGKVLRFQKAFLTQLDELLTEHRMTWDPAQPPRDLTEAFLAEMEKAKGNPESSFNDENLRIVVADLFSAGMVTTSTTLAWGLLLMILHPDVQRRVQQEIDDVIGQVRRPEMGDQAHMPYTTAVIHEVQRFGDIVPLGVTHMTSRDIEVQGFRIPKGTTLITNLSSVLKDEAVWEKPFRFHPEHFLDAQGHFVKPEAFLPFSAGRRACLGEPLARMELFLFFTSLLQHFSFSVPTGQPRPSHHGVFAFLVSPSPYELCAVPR
T2 sequence (P22303 32-614): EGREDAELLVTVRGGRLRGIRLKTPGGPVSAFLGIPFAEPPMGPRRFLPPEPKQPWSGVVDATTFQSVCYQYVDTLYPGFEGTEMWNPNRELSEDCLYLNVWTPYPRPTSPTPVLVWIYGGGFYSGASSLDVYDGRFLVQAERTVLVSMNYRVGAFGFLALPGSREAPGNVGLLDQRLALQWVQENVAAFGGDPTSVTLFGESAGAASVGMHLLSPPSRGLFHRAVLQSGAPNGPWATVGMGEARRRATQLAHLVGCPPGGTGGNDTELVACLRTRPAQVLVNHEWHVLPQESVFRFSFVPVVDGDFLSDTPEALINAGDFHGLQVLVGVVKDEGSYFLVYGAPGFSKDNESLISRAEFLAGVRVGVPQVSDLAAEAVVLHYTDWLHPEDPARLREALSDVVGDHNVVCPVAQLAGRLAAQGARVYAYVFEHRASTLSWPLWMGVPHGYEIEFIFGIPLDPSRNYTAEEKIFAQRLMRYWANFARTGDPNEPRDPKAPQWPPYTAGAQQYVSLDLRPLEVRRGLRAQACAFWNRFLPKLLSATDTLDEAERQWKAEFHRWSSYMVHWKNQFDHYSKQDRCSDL
T3 sequence (P50406 whole entry): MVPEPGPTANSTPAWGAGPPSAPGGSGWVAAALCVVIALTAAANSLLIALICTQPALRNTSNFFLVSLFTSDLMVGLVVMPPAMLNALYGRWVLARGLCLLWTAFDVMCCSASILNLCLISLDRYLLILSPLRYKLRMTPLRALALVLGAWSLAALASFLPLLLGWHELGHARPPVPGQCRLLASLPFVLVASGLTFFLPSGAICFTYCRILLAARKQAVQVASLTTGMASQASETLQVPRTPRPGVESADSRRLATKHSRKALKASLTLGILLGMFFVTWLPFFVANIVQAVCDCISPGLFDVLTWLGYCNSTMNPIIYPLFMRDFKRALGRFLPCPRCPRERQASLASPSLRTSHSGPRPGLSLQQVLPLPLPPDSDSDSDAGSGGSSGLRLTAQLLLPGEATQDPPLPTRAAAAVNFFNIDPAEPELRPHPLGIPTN
T4 sequence (P06276 29-602): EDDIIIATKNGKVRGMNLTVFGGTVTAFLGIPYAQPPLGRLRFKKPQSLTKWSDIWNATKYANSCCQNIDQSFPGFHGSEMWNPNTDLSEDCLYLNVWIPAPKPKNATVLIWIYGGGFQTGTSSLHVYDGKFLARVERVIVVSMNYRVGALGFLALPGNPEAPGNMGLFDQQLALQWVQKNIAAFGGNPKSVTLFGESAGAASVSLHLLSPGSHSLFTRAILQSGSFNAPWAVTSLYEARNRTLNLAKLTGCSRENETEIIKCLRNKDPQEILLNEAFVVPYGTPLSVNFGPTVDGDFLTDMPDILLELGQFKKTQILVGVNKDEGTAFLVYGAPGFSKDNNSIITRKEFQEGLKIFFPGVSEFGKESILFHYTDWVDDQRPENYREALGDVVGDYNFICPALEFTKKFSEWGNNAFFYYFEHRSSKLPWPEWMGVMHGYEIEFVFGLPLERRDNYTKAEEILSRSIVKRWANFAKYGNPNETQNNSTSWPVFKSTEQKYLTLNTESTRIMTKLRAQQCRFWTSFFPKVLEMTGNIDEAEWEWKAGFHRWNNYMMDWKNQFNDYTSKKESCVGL

`O=c1[nH]c2c(OCCNCCCC3CCN(Cc4ccccc4)CC3)cccc2n1Cc1ccccc1` [Compound 19, 1-Benzyl-4-(2-((3-(1-benzylpiperidin-4-yl)propyl)amino)ethoxy)-1,3-dihydro-2H-benzo[d]imidazol-2-one]: the “% of ABTS• reduction ± SD” value in data set [1] (30 µM, 5 min) was found to be 10±0%; in data set [1] (30 µM, 30 min) it was 17±0%; in data set [1] (30 µM, 60 min), 22±1%; in data set [1] (75 µM, 5 min), 14±1%; in data set [1] (75 µM, 30 min), 24±2%; in data set [1] (75 µM, 60 min), 30±2%. Further, the “% of ABTS• reduction ± SD” value in data set [1] (150 µM, 5 min) amounted to 25±4%; in data set [1] (150 µM, 30 min) it was 37±5%; in data set [1] (150 µM, 60 min), 43±4%. Besides, the “influence on the activity of CYP2D6” value at CYP2D6 (0.1 µM) is recorded as “did not influence the activity of CYP2D6”; at CYP2D6 (1 µM), “CYP2D6-activating effect”. Also, the results for the IC50 in data set [2] and in data set [5] were 544 ± 15 nM and 613 ± 11 nM, respectively. Further, in data set [3], the “MLMs % Left” value is recorded as 79.38%. The main metabolic pathway result in data set [4] is “oxidative deamination”. The “HLMs % Left” value in data set [4] (human, 2 h, pH 7.4) was found to be 94.00%. On human 5-HT6 receptor, this compound showed an inhibition constant Ki of 480 ± 48 nM.

On to `Fc1ccc2c(CCNCc3cccc(OCC(F)(F)C(F)F)c3)c[nH]c2c1` [Idalopirdine], for which the effects on cognition entry in data set [6] is recorded as “positive effects on cognition”.

Regarding `O=S(=O)(c1ccccc1)c1cnc2c(N3CCNCC3)cccc2c1` [intepirdine], the effects on cognition result in data set [6] is given as “positive effects on cognition”.

Values taken from article PMC9409043, “Serotonin 5-HT6 Receptor Ligands and Butyrylcholinesterase Inhibitors Displaying Antioxidant Activity—Design, Synthesis and Biological Evaluation of Multifunctional Agents against Alzheimer’s Disease” (International Journal of Molecular Sciences, 2022).
